Measurements as given in patent publication US10508120B2, “TYK2 inhibitors and uses thereof” (Nimbus Lakshmi, Inc., priority 2017, dated 2019).
Where two headings read alike, the source gives them in different places.

How the values were obtained:
JAK2 kinase domain (JH1) = JAK2 kinase domain (JH1) (Homo sapiens (Human), UniProt O60674); assay: JAK2 Radioactive Kinase Assay; type: biochemical; conditions: for inhibition at 10 µM: read-out: JAK2 JH1% Inhibition @ 10 μM
In short: (§1)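 Read-out is percent inhibition from a radioactive kinase reaction, measured with compound at 10 μM.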

[1] = biological target: JAK2/JAK2 homdimeric complex (Homo sapiens (Human), UniProt O60674); assay: GM-CSF Induced pSTAT5 in Human PBMC; type: cell-based; conditions: GM-CSF 5 ng/mL for 20 minutes, pSTAT5 by MSD, read-out: PBMC_GMCSF_pSTAT5 IC50
Tyk2 kinase domain (DH1) = Tyk2 kinase domain (DH1) (Homo sapiens (Human), UniProt P29597); assay: Tyk2 Radioactive Kinase Assay; type: biochemical; conditions: for inhibition at 10 µM: read-out: Tyk2 JH1% Inhibition @ 10 μM
In short: as §1

[2] = biological target: human TYK2 (JH2domain-pseudokinase) (Homo sapiens (Human), UniProt P29597); assay: TYK2 JH2 Domain Binding Assay (KINOMEscan)
In short: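 Competition binding of an NFkB-DBD fusion of human TYK2 JH2 (G556–D888), expressed in HEK293 and used as crude extract at <0.1 nM, against immobilized ligand beads; 1 h at room temperature in PBS/Tween/DTT/BSA buffer, 0.9% DMSO.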

Sequence of Tyk2 kinase domain (DH1) (P29597 897-1176): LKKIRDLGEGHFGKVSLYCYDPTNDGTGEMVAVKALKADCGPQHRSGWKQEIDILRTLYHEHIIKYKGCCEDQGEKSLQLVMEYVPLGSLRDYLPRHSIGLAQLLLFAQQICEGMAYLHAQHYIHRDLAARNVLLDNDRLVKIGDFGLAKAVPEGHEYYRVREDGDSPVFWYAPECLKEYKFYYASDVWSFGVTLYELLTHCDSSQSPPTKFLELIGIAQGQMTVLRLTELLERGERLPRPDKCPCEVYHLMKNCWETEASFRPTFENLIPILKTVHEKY
Sequence of human TYK2 (JH2domain-pseudokinase) (P29597 556-888): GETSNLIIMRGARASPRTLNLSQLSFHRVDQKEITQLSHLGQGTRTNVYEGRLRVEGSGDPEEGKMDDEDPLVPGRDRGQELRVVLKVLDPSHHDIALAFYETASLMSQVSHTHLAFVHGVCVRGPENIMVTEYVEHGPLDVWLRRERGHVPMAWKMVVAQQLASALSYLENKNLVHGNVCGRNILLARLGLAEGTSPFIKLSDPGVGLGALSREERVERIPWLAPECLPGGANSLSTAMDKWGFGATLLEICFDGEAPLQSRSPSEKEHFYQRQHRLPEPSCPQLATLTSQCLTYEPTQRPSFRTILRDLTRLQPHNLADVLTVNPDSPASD
Sequence of JAK2 kinase domain (JH1) (O60674 849-1124): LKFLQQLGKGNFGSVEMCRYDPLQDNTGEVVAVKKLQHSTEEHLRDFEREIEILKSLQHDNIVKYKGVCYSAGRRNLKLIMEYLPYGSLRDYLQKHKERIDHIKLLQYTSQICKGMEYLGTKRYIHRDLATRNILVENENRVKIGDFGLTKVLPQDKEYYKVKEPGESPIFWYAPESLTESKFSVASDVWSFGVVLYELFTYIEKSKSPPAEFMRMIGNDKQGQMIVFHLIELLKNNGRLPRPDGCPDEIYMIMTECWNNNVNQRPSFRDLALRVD
Sequence of JAK2/JAK2 homdimeric complex (O60674 whole entry, the tested form may be a part): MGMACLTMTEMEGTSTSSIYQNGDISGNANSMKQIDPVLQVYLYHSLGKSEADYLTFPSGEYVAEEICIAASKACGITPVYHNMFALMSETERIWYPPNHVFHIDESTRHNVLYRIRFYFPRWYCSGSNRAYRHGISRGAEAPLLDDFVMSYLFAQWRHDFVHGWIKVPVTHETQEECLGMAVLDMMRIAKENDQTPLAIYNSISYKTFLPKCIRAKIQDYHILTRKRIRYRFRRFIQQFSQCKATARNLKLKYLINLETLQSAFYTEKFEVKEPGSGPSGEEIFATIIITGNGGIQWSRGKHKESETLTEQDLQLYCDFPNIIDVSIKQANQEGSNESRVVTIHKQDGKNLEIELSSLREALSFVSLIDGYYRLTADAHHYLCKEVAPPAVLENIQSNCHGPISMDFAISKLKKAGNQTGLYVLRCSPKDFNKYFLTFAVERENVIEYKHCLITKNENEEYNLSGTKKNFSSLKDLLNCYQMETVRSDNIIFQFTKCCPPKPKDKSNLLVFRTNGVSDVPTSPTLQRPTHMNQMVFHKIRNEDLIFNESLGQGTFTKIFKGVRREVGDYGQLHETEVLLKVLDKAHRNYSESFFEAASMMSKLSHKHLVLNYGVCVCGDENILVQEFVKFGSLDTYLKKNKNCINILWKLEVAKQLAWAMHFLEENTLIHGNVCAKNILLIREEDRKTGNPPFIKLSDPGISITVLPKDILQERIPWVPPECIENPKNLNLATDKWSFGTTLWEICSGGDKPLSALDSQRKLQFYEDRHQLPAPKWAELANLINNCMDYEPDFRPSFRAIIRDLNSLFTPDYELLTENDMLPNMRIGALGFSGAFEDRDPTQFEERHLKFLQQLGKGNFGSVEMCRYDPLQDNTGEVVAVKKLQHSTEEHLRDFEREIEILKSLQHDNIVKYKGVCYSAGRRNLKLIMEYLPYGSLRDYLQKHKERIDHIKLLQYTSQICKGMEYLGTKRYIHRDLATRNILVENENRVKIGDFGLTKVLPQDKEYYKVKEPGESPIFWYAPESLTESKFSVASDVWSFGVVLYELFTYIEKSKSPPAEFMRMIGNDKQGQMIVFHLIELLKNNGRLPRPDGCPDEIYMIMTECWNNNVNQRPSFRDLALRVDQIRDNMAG
Sequence of JAK2/JAK2 homdimeric complex (P32927 17-897 partner): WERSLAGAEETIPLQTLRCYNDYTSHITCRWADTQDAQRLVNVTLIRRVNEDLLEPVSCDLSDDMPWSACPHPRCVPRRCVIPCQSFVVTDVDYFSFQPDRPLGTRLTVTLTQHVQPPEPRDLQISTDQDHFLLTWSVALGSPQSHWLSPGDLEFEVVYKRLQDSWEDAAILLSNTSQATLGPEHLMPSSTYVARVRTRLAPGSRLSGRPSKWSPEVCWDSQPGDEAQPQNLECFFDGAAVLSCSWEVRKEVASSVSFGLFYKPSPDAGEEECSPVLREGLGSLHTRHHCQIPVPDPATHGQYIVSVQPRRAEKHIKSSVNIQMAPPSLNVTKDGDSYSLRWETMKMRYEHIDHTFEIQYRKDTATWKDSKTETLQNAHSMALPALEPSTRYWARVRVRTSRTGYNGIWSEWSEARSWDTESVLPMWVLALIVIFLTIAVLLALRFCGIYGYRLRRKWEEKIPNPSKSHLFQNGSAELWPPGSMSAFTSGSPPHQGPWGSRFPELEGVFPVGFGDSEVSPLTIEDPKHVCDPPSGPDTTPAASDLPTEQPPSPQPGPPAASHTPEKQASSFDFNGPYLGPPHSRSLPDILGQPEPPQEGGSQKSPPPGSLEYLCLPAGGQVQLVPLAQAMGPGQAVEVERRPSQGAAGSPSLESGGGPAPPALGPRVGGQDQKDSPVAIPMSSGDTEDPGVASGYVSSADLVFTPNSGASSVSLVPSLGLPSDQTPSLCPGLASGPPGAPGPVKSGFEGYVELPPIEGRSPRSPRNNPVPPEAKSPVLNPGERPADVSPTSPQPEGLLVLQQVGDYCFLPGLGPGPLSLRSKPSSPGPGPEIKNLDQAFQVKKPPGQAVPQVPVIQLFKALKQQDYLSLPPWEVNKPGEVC

| Structure (SMILES) | inhibition at 10 µM (JAK2 kinase domain (JH1); 10 μM compound, 10 μM ATP) [%] | IC50 [1] [µM] | inhibition at 10 µM (JAK2 kinase domain (JH1)) [%] | inhibition at 10 µM (Tyk2 kinase domain (DH1)) [%] | inhibition at 10 µM (Tyk2 kinase domain (DH1); 10 μM compound, 10 μM ATP) [%] | Kd [2] [µM] | JAK2 JH1% Inhibition @ 10 μM (JAK2 kinase domain (JH1); 10 μM compound, 10 μM ATP) | Tyk2 JH1% Inhibition @ 10 μM (Tyk2 kinase domain (DH1); 10 μM compound, 10 μM ATP) |
| --- | --- | --- | --- | --- | --- | --- | --- | --- |
| CNc1cc(Nc2cccn([C@@H]3CCCOC3)c2=O)nc2c(C(=O)NC3CCC3OC)cnn12 (mixture of isomers) [I-814, N-(-2-methoxycyclobutyl)-7-(methylamino)-5-((2-oxo-1-((R)-tetrahydro-2H-pyran-3-yl)-1,2-dihydropyridin-3-yl)amino)pyrazolo[1,5-a]pyrimidine-3-carboxamide] | < 50 | > 50 | – | – | – | – | – | – |
| CNc1cc(Nc2cccn(-c3ccccn3)c2=O)nc2c(C(=O)N[C@@H]3CC[C@H]3OC)cnn12 (stereo in doubt) [I-816, N-(2-methoxycyclobutyl)-7-(methylamino)-5-((2-oxo-2H-[1,2′-bipyridin]-3-yl)amino)pyrazolo[1,5-a]pyrimidine-3-carboxamide] | – | > 2.5 | < 50 | < 50 | – | – | – | – |
| CNc1cc(-c2cn(C3CC3)c3ncccc23)nc2c(C(=O)N[C@H]3CC[C@@H]3OC)cnn12 (stereo in doubt) [I-1067, 5-(1-cyclopropyl-1H-pyrrolo[2,3-b]pyridin-3-yl)-N-(2-methoxycyclobutyl)-7-(methylamino)pyrazolo[1,5-a]pyrimidine-3-carboxamide] | < 50 | > 12.5 | – | – | < 50 | < 0.0002 | – | – |
| CNc1cc(Nc2cccnc2OC)nc2c(C(=O)NOC(C)(C)C)cnn12 [I-612, N-(tert-butoxy)-5-((2-methoxypyridin-3-yl)amino)-7-(methylamino) pyrazolo[1,5-a]pyrimidine-3-carboxamide] | – | > 50 | < 50 | – | – | – | – | – |
| CCONC(=O)c1cnn2c(NC)cc(Nc3cccn(-c4ncccc4F)c3=O)nc12 [I-798, N-ethoxy-5-((3′-fluoro-2-oxo-2H-[1,2′-bipyridin]-3-yl)amino)-7-(methylamino) pyrazolo[1,5-a]pyrimidine-3-carboxamide] | – | > 50 | < 50 | – | – | – | – | – |
| CNc1cc(Nc2cccn([C@H]3CCCOC3)c2=O)nc2c(C(=O)N[C@@H]3CC[C@H]3OC)cnn12 [I-815] | < 50 | > 12.5 | – | – | – | – | – | – |
| CNc1cc(Nc2cccn([C@H]3CCCOC3)c2=O)nc2c(C(=O)N[C@H]3CC[C@@H]3OC)cnn12 [I-877] | < 50 | > 50 | – | – | – | – | – | – |
| CNc1cc(Nc2cccn([C@H]3CCCC[C@H]3O)c2=O)nc2c(C(=O)NC3CC3)cnn12 [I-878] | < 50 | > 50 | – | – | < 50 | < 0.0002 | – | – |
| CNc1cc(Nc2cccn([C@@H]3CCCOC3)c2=O)nc2c(C(=O)N[C@@H]3CC[C@H]3OC)cnn12 [I-902, N-((1R,2R)-2-methoxycyclobutyl)-7-(methylamino)-5-((2-oxo-1-((R)-tetrahydro-2H-pyran-3-yl)-1,2-dihydropyridin-3-yl)amino)pyrazolo[1,5-a]pyrimidine-3-carboxamide] | – | > 50 | – | – | – | – | A (percent inhibition at 10 μM lower than 50) | – |
| CNc1cc(Nc2cccn(-c3ccccn3)c2=O)nc2c(C(=O)N[C@@H]3CC[C@H]3OC)cnn12 [I-908, N-((1R,2R)-2-methoxycyclobutyl)-7-(methylamino)-5-((2-oxo-2H-[1,2′-bipyridin]-3-yl)amino)pyrazolo[1,5-a]pyrimidine-3-carboxamide] | – | > 50 | – | – | – | – | A (percent inhibition at 10 μM lower than 50) | A (percent inhibition at 10 μM lower than 50) |
| CNc1cc(Nc2cc(Cl)cn(-c3cnn(C)c3F)c2=O)nc2c(C(=O)NC3CC3)cnn12 [I-955] | < 50 | > 12.5 | – | – | < 50 | < 0.0002 | – | – |
| CNc1cc(Nc2cccn([C@@H]3CCC[C@@H](OC)C3)c2=O)nc2c(C(=O)NC3CC3)cnn12 [I-957] | – | > 50 | – | – | – | – | A (percent inhibition at 10 μM lower than 50) | A (percent inhibition at 10 μM lower than 50) |
| CNc1cc(Nc2cccn(C3CCC[C@H](OC)C3)c2=O)nc2c(C(=O)NCC(C)(C)CO)cnn12 (stereo partly drawn) [I-958] | < 50 | > 50 | – | – | < 50 | < 0.0002 | – | – |
| CNc1cc(Nc2cccn([C@H]3CC[C@](C)(OC)CC3)c2=O)nc2c(C(=O)N[C@@H]3CC[C@H]3O)cnn12 [I-962] | – | > 50 | – | – | – | < 0.0002 | A (percent inhibition at 10 μM lower than 50) | A (percent inhibition at 10 μM lower than 50) |
| CNc1cc(Nc2cccn([C@H]3CCC[C@H]3O)c2=O)nc2c(C(=O)NC3CC3)cnn12 [I-963] | < 50 | > 50 | – | – | < 50 | < 0.0002 | – | – |
| CNc1cc(Nc2cccn([C@H]3CCC[C@H]3O)c2=O)nc2c(C(=O)N[C@@H]3C[C@@H]3F)cnn12 [I-965] | < 50 | > 50 | – | – | < 50 | < 0.0002 | – | – |
| CNc1cc(Nc2cccc(N3CCCC3=O)n2)nc2c(C(=O)N[C@H]3CC[C@H]3O)cnn12 [I-969] | < 50 | > 50 | – | – | < 50 | < 0.0002 | – | – |
| CNc1cc(Nc2cccn(-c3ccccn3)c2=O)nc2c(C(=O)N[C@H]3CC[C@@H]3O)cnn12 [I-971] | < 50 | > 50 | – | – | < 50 | – | – | – |
| CNc1cc(Nc2cccn(-c3cncc(F)c3)c2=O)nc2c(C(=O)N[C@H]3CC[C@@H]3OC)cnn12 [I-984] | – | > 50 | – | – | – | – | A (percent inhibition at 10 μM lower than 50) | – |
| CNc1cc(Nc2cccn([C@H]3CCC[C@@H](OC)C3)c2=O)nc2c(C(=O)N[C@@H]3CC[C@H]3O)cnn12 [I-993] | – | > 50 | – | – | – | – | A (percent inhibition at 10 μM lower than 50) | A (percent inhibition at 10 μM lower than 50) |
| CNc1cc(Nc2cccn([C@H]3CCC[C@@H](OC)C3)c2=O)nc2c(C(=O)N[C@H]3CC[C@@H]3OC)cnn12 [I-996] | – | > 50 | – | – | – | < 0.0002 | A (percent inhibition at 10 μM lower than 50) | A (percent inhibition at 10 μM lower than 50) |
| CNc1cc(Nc2cccn([C@@H]3CC[C@H]3O)c2=O)nc2c(C(=O)N[C@@H]3C[C@@H]3F)cnn12 [I-999] | < 50 | > 50 | – | – | < 50 | < 0.0002 | – | – |
| CNc1cc(Nc2cccn(-c3cccc(F)c3)c2=O)nc2c(C(=O)N[C@H]3CC[C@H]3O)cnn12 [I-1004] | – | > 12.5 | – | – | – | < 0.0002 | A (percent inhibition at 10 μM lower than 50) | A (percent inhibition at 10 μM lower than 50) |
| CNc1cc(Nc2cccn([C@H]3CCC[C@H](OC)C3)c2=O)nc2c(C(=O)NCC3(CO)CC3)cnn12 [I-1010] | < 50 | > 50 | – | – | < 50 | < 0.0002 | – | – |
| CNc1cc(-c2cn(C(C)C)c3ncc(F)cc23)nc2c(C(=O)N[C@H]3CC[C@H]3O)cnn12 [I-1013, 5-(5-fluoro-1-isopropyl-1-pyrrolo[2,3-b]pyridin-3-yl)-N-(2-hydroxycyclobutyl)-7-(methylamino)pyrazolo[1,5-a]pyrimidine-3-carboxamide] | < 50 | > 12.5 | – | – | < 50 | < 0.0002 | – | – |
| CNc1cc(Nc2cccn(-c3cnco3)c2=O)nc2c(C(=O)N[C@H]3CC[C@H]3O)cnn12 [I-1017] | < 50 | > 12.5 | – | – | < 50 | < 0.0002 | – | – |
| CNc1cc(Nc2cccn([C@H]3[C@@H]4COC[C@@H]43)c2=O)nc2c(C(=O)N[C@H]3CC[C@@H]3OC)cnn12 [I-1088] | < 50 | > 50 | – | – | < 50 | – | – | – |
| CNc1cc(Nc2cccn([C@H]3CC[C@H](OC)CC3)c2=O)nc2c(C(=O)N[C@@H]3CC[C@H]3OC)cnn12 [I-1378] | – | > 50 | – | – | – | – | – | – |
| CNc1cc(Nc2cccn(-c3ncco3)c2=O)nc2c(C(=O)N[C@@H]3CC[C@H]3OC)cnn12 [I-1398] | – | > 50 | – | – | – | – | – | – |
